A short description of the data set: Human HepG2 cell viability assay in 384 well format. The class given is toxicity, cell-based. The arrangement: dose 125 nL, time 70.5 hour; cytotoxicity at 70.5 h: concentration not given beside the values. The note with it: HepG2 cells, read-out: Inhibition.
For `O=C(c1ncccn1)N1CCC[C@]2(C[C@@H](Oc3ncccc3F)CO2)C1`, the cytotoxicity at 70.5 h came out at 21.8%.

Take `CCCC(NC(=O)NCc1cccc(N(C)C)n1)c1ccccn1` (stereo not given): the cytotoxicity at 70.5 h is -18.8%.

In the case of `O=C(CCc1ccsc1)Nc1ccnn1C1CCS(=O)(=O)C1` (stereo not given), the cytotoxicity at 70.5 h was found to be 16.5%.

Turning to `CN(Cc1ccncc1)C(=O)NC1CCS(=O)(=O)C1` (stereo not given), the cytotoxicity at 70.5 h was -3.72%.

On to `c1nc2n(n1)CC(NCc1nc(-c3ccsc3)no1)CC2` (stereo not given), for which the cytotoxicity at 70.5 h is -8.53%.

As to `CC(C)n1nccc1NC(=O)NCCc1nc2ccc(F)cc2n1C`, the cytotoxicity at 70.5 h was -11%.

For `CCC(C(=O)NC1CCCCC1)n1ccc2ncccc2c1=O` (stereo not given), the cytotoxicity at 70.5 h is -11.8%.

`CCc1nc(C2CCCN(C(=O)c3cnn(CC)c3)C2)no1` (stereo not given): the cytotoxicity at 70.5 h worked out at 2.05%.

For the compound `Cc1nc(CNC(=O)[C@@H]2CCCN2C(=O)OC(C)(C)C)cs1`, the cytotoxicity at 70.5 h is -7.16%.

`CSCCC(C)(O)CNC(=O)c1ccsc1` (stereo not given): the cytotoxicity at 70.5 h amounted to 0.568%.

`COc1cc(C(=O)N(Cc2cnn(C)c2)C(C)C)ccc1OC(C)C`: the cytotoxicity at 70.5 h came out at 3.17%.

As to `Cc1sc2nc(CCN)nc(N(CCN(C)C)CC3CCCO3)c2c1C` (stereo not given), the cytotoxicity at 70.5 h stood at 5.16%.

On to `Cc1csc(N2CCCN(C3Cc4ccccc4C3)CC2)n1`, for which the cytotoxicity at 70.5 h was -15.6%.

Consider `O=C(c1cccn1Cc1cccs1)N1CCCC1Cn1cccn1` (stereo not given), for which the cytotoxicity at 70.5 h is -20.8%.

As for `CCc1nc(C2CCCN2CC(=O)Nc2sc(C)c(C)c2C)no1` (stereo not given), the cytotoxicity at 70.5 h is -5.03%.

Take `CCOC(CC)C(=O)NCCC(=O)N1CCN(c2ncccn2)CC1` (stereo not given): the cytotoxicity at 70.5 h was -18.6%.

Regarding `N#Cc1cc(F)c(NCc2ccc(F)cc2)c(F)c1`, the cytotoxicity at 70.5 h is 15.5%.

Take `CC[C@@H](CO)Nc1cc(-c2cn[nH]c2)ncn1`: the cytotoxicity at 70.5 h amounted to 3.42%.

As to `O=C(CC1CCCO1)NS(=O)(=O)Cc1cc(-c2ccccc2)no1` (stereo not given), the cytotoxicity at 70.5 h came out at 20.6%.

For `CCN(C)C(=O)c1ccc(N2CCC(Oc3cccc(F)c3)CC2)nc1`, the cytotoxicity at 70.5 h is -4.75%.

As for `O=C1NC(C(=O)NCc2cccnc2Oc2ccc(F)c(F)c2)CO1` (stereo not given), the cytotoxicity at 70.5 h is -21.4%.

Regarding `Cc1cnn(CC2CCCN2C(=O)c2csc(C3CC3)n2)c1` (stereo not given), the cytotoxicity at 70.5 h was -0.994%.

With `CCN(CC)S(=O)(=O)CCNC(=O)c1cc2cccc(F)c2o1`, the cytotoxicity at 70.5 h was -1.2%.

Turning to `COCc1cc(NCc2cccnc2Oc2ccc(C)nc2)ncn1`, the cytotoxicity at 70.5 h is -12.4%.

With `Cc1cnc(N)nc1N1CCN(CCCO)CC1`, the cytotoxicity at 70.5 h is -10.3%.

As to `O=C(O)c1cc2c(nc1O)CC(c1cccs1)CC2=O` (stereo not given), the cytotoxicity at 70.5 h is -3.98%.

For the compound `CCCN1CCCC2(CCN(S(=O)(=O)c3cccnc3)C2)C1=O` (stereo not given), the cytotoxicity at 70.5 h was determined as 2.74%.

Take `CCCn1c(C)c(CC(=O)N[C@H](C)C(=O)OC)c2c1CC(C)(C)CC2=O`: the cytotoxicity at 70.5 h is -0.686%.

`CCn1nc(C)c2ncnc(NCCn3cccn3)c21`: the cytotoxicity at 70.5 h is -1.42%.

As to `COc1cccc(C(=O)N2C[C@@H](c3ccccc3)[C@@H]3NCCCC[C@@H]32)c1`, the cytotoxicity at 70.5 h was -8.79%.

For the compound `CCc1nc(NCCCn2cccn2)c2c(n1)c(C)nn2CC`, the cytotoxicity at 70.5 h was 14.8%.

In the case of `NC(=O)CN1CCCC(C(=O)N2CCC(O)(c3ccccc3)CC2)C1` (stereo not given), the cytotoxicity at 70.5 h came out at 31%.

For the compound `FC(F)(F)C1CCCn2c(CNCc3ccsc3)nnc21` (stereo not given), the cytotoxicity at 70.5 h was -9.55%.

For `Cc1cccc(Nc2nccnc2C2CCCN2CC(N)=O)n1` (stereo not given), the cytotoxicity at 70.5 h is -2.88%.

Take `CCc1ncc2c(n1)CN(Cc1nc(C)c(C)o1)CC2`: the cytotoxicity at 70.5 h is 1.3%.

In the case of `CNC(=O)c1cccc(NC(=O)NCc2ccc(SC)cc2)c1C`, the cytotoxicity at 70.5 h was -7.01%.

`Cc1csc(N2CCN(CC(=O)Nc3cccnc3)CC2C)n1` (stereo not given): the cytotoxicity at 70.5 h was determined as 2.59%.

For `Cc1nc(C)c(C(=O)N2Cc3ccccc3OCC2Cn2ccnc2)o1` (stereo not given), the cytotoxicity at 70.5 h is -1.03%.

Consider `Cc1nc(C2(O)CCCNCC2)sc1CCOc1ccc(F)c(F)c1` (stereo not given), for which the cytotoxicity at 70.5 h was -4.26%.

Turning to `Cc1ccc(-n2nc(C)c3c2NC(=O)CC3c2cnc(N)s2)cc1` (stereo not given), the cytotoxicity at 70.5 h is -0.62%.

Take `Cc1nn(C)c(C)c1NC(=O)CN1CCOC(Cn2cccn2)C1` (stereo not given): the cytotoxicity at 70.5 h is -1.52%.

Consider `c1cc2c(c(-c3cc(N4CCOCC4)ncn3)c1)CCNC2`, for which the cytotoxicity at 70.5 h was -7.28%.

In the case of `O=C(CCNc1ncccn1)NCc1csc(Br)c1`, the cytotoxicity at 70.5 h is 11.5%.

Turning to `COCCC(=O)N1CCC2(CCN(Cc3cccc(F)c3)C2)C1` (stereo not given), the cytotoxicity at 70.5 h turned out to be 24.8%.

For `O=C1CC[C@@H]2[C@@H](CCN2Cc2ccccn2)N1CC1CC1`, the cytotoxicity at 70.5 h was -3.44%.

As to `CC(C)CCN1C[C@H]2C[C@H](C(=O)Nc3ccccc3)[C@@H](C1)O2`, the cytotoxicity at 70.5 h was -21.4%.

With `O=C(NCCCOC1CCOC1)NC(C1CC1)C1CC1` (stereo not given), the cytotoxicity at 70.5 h came to 5.31%.

For the compound `CC(C)OCc1nn(C)c2c1CN(Cc1cccs1)CC2`, the cytotoxicity at 70.5 h is -2.74%.

Turning to `CCCNC(=O)CCNC1CSCCc2ccccc21` (stereo not given), the cytotoxicity at 70.5 h was -2.78%.

For `Cc1nnc(SC2CCc3ccccc3NC2=O)o1` (stereo not given), the cytotoxicity at 70.5 h was -16.3%.

Consider `COC(=O)c1ccc(C2SCC(=O)Nc3ccsc32)cc1` (stereo not given), for which the cytotoxicity at 70.5 h was -8.05%.

Turning to `CCOCC1CN(C(=O)CS(C)(=O)=O)Cc2cnn(C)c21` (stereo not given), the cytotoxicity at 70.5 h is -14.4%.

`Cc1c(Br)cccc1CSc1nnc(CO)n1C`: the cytotoxicity at 70.5 h came out at 14%.

`Cc1cnn(CC2CCCCN2CCCS(C)(=O)=O)c1` (stereo not given): the cytotoxicity at 70.5 h is -2.88%.

Turning to `Cc1ccc(CN(C)C(=O)CN2CCCC2c2cnn(C)c2)cc1` (stereo not given), the cytotoxicity at 70.5 h is -6.75%.

Turning to `CC(=O)N(Cc1ncc(C)o1)C1CCN(Cc2cccnc2)C1` (stereo not given), the cytotoxicity at 70.5 h worked out at 2.44%.

As for `CC1C(=O)Nc2cccnc2N1S(=O)(=O)c1ccc(C#N)c(Cl)c1` (stereo not given), the cytotoxicity at 70.5 h is -6.2%.

With `COc1ccccc1C(=O)NCCC(=O)Nc1c(C)nn(C)c1C`, the cytotoxicity at 70.5 h is -12.6%.

`CC(C)OCCCNC(=O)CN1C=Nc2ccccc2S1(=O)=O`: the cytotoxicity at 70.5 h was -7.79%.

For `O=S(=O)(c1cccs1)N1Cc2nc(COCC3CC3)oc2C1`, the cytotoxicity at 70.5 h is -5.06%.

Regarding `CCOCC(=O)N1Cc2[nH]nc(COCC3CC3)c2C1`, the cytotoxicity at 70.5 h was found to be 0.817%.

On to `Cc1ccc(OCCN(C)C(=O)CCCN2CCCC2=O)c(C)c1`, for which the cytotoxicity at 70.5 h was -5.15%.

Turning to `CCC1CCCCN1C(=O)CCn1cnc2sccc2c1=O` (stereo not given), the cytotoxicity at 70.5 h is -11.1%.

For the compound `CCn1nc(C)c(C(=O)N2CCC(Nc3ccc(C)nn3)CC2)c1C`, the cytotoxicity at 70.5 h was -106%.

As to `O=C(c1nnn(-c2ccc(C(F)(F)F)cc2)n1)N1CC(O)C1`, the cytotoxicity at 70.5 h was -8.07%.

`CC(C)Oc1cccc(F)c1C(C(=O)O)N1CCCN(C)CC1` (stereo not given): the cytotoxicity at 70.5 h was 26.8%.

With `Cc1cc(C(=O)NCc2ccc(N3CCCC(C(N)=O)C3)cc2)[nH]n1` (stereo not given), the cytotoxicity at 70.5 h was -2.55%.

Turning to `Cc1cnc(CCNC(=O)C2CN(C(=O)Cc3ccc(F)cc3)C2)s1`, the cytotoxicity at 70.5 h was 15.9%.

Regarding `COC(=O)C(C)(C)NC(=O)C1CC(=O)N(CC2CC2)C1` (stereo not given), the cytotoxicity at 70.5 h is -6.45%.

With `N#Cc1cccc(C(=O)N2CCc3ncc(Cn4cccn4)n3CC2)c1`, the cytotoxicity at 70.5 h was found to be 8.26%.

Turning to `CN(C)C(=O)N1CCN(CCn2nc3ccccn3c2=O)CC1`, the cytotoxicity at 70.5 h was -2.81%.

With `COc1cc(Cl)c(NC(=O)c2cc3c([nH]c2=O)CCCC3=O)cc1OC`, the cytotoxicity at 70.5 h is -7.89%.

As for `CCN1CC2(CCC1=O)CCN(Cc1cscn1)CC2`, the cytotoxicity at 70.5 h was -10.8%.

Consider `C[C@H]1C[C@@H]2CCN(C(=O)c3cccn3C)C[C@H]2O1`, for which the cytotoxicity at 70.5 h is -12.7%.

Consider `Cc1ncc(CN(C)CC2CCCN2c2cccnn2)s1` (stereo not given), for which the cytotoxicity at 70.5 h was 8.83%.

For the compound `O=C(CN1CCC(c2ccnn2CCO)CC1)NC1CCCC1`, the cytotoxicity at 70.5 h is -3.63%.

In the case of `CNC(=O)C1(c2cnccn2)CCCN1C(=O)c1ccccc1OC` (stereo not given), the cytotoxicity at 70.5 h came to 13.3%.

`Cc1cc2[nH]c(=O)oc2cc1S(=O)(=O)N1CCC(N2CCCC2=O)CC1`: the cytotoxicity at 70.5 h is -9.07%.

With `CC(=O)Nc1ncc(S(=O)(=O)Nc2ccc3c(c2)OCCO3)s1`, the cytotoxicity at 70.5 h is -7.83%.

On to `O=C1N(c2ccc(Cl)cc2)Cc2nc(=O)[nH]n21`, for which the cytotoxicity at 70.5 h is -11.3%.

Turning to `O=C1NCCCC12CCN(Cc1ccc(-c3ccccc3)s1)C2` (stereo not given), the cytotoxicity at 70.5 h was 7.11%.

In the case of `CC(NC(=O)NCCOc1ccc(F)c(F)c1)c1nncn1C` (stereo not given), the cytotoxicity at 70.5 h is -0.895%.

Turning to `O=C(CCc1nc(C2CC2)no1)c1ccc(F)c(F)c1`, the cytotoxicity at 70.5 h was -17.2%.

Turning to `Cc1nc(C2CCCN(C(=O)c3scnc3C)C2)no1` (stereo not given), the cytotoxicity at 70.5 h was -7.6%.

On to `COCCC(=O)N[C@H]1CN(c2nc(C)c3c(n2)CCCC3)C[C@@H]1C1CC1`, for which the cytotoxicity at 70.5 h is -9.64%.

For the compound `CCCC1CCN(C(=O)c2coc(COc3ccc(OC)cc3)n2)C1` (stereo not given), the cytotoxicity at 70.5 h is -3.1%.

For `O=C(NCC1CCOC1)c1cc(-c2ccccc2Cl)[nH]n1` (stereo not given), the cytotoxicity at 70.5 h is -12.9%.

For the compound `Cc1cccc(C2(O)CCN(C(=O)c3ccc(N(C)C)cc3)CC2)c1C`, the cytotoxicity at 70.5 h came out at 9.92%.

On to `CC(C(=O)N1CCCN(c2ncccc2C#N)CC1)n1cncn1` (stereo not given), for which the cytotoxicity at 70.5 h is -12.1%.

In the case of `CC(O)c1cccc(N2CCC3(CCC(=O)N(C4CCCC4)C3)CC2)n1` (stereo not given), the cytotoxicity at 70.5 h was -2.86%.

In the case of `CN1CCN(c2cc(CNC(=O)c3ccc(=O)n(C)c3)ccn2)CC1`, the cytotoxicity at 70.5 h was -15.6%.

Turning to `Cn1nc(COCC2CC2)c2c1CN(C(=O)c1ccno1)CC2`, the cytotoxicity at 70.5 h is -9.87%.

On to `Fc1cnc(N2CC[C@@H]3O[C@@H](COCc4ccccn4)CC[C@@H]32)nc1`, for which the cytotoxicity at 70.5 h came to 7.99%.

Regarding `Cc1ccc(CN2CCCC3(COCCN(Cc4c[nH]nn4)C3)C2)o1` (stereo not given), the cytotoxicity at 70.5 h amounted to 0.0506%.

`Cc1cccc(CN2CCCCC2c2n[nH]cc2-c2cc(C)no2)c1` (stereo not given): the cytotoxicity at 70.5 h was -6.6%.

Consider `O=C(Cn1cc(C(=O)O)ccc1=O)Nc1ccc(Cl)cc1F`, for which the cytotoxicity at 70.5 h is -38%.

`CC(C)OCc1noc(C2CCOC2)n1` (stereo not given): the cytotoxicity at 70.5 h is -9.31%.

Turning to `CC(C)c1noc(C[S+]([O-])CC(=O)Nc2ccc(F)c(F)c2)n1` (stereo not given), the cytotoxicity at 70.5 h was 10.4%.

Turning to `Cc1cc(C)c(C(=O)N2CCCC(O)(CN3CCCC3)C2)cc1C` (stereo not given), the cytotoxicity at 70.5 h is -4.19%.

As for `Cc1ccc(-c2cc(CN(CC(N)=O)CC(C)C)on2)cc1`, the cytotoxicity at 70.5 h is -2.81%.

(Values after ChEMBL document CHEMBL3507680, “University of Dundee, Gates Library screen for HepG2 cell viability”.)
